Tests used:
[1] = Permeability across apical to basolateral side in human Caco2 cells after 60 mins by HPLC-MS/MS analysis; type: ADME, cell-based; settings: caco-2, 1 h
[2] = target: T1, GNMT (glycine N-methyltransferase) (Homo sapiens, UniProt Q14749); assay: Inhibition of human GNMT expressed in Escherichia coli at 1 uM assessed as reduction in SAH level using glycine as substrate in presence of SAM incubated for 30 mins by LC-MS/MS analysis relative to control; settings: recombinant human GNMT expressed in Escherichia coli, probe glycine
T1 sequence (Q14749 whole entry): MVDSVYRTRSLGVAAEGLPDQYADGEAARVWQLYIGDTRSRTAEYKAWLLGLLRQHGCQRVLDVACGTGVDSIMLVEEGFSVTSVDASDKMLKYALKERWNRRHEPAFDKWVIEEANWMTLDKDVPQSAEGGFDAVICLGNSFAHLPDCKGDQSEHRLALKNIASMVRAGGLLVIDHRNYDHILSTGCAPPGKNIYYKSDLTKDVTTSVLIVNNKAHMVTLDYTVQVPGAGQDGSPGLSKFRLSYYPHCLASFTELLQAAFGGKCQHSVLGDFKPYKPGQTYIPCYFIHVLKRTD

[3] = target: DNA (cytosine-5)-methyltransferase 3A (Homo sapiens, UniProt Q9Y6K1); assay: Inhibition of human DNMT3a expressed in insect sf9 cells assessed as reduction in methylated poly(dI-dC)-Poly(dI-dC) level using poly(dI-dC)-poly(dI-dC) as substrate in presence of [3H] SAM incubated for 10 mins by scintillation counting
[4] = target: GAMT (guanidinoacetate N-methyltransferase) (Homo sapiens, UniProt Q14353); assay: Inhibition of human GAMT expressed in Escherichia coli at 10 uM assessed as reduction in SAH level using guanidineacetic acid as substrate in presence of SAM incubated for 30 mins by LC-MS/MS analysis relative to control; settings: recombinant human GAMT expressed in Escherichia coli, probe guanidineacetic acid
[5] = target: T2, PNMT (phenylethanolamine N-methyltransferase) (Homo sapiens, UniProt P11086); assay: Inhibition of human PNMT expressed in Escherichia coli at 1 uM assessed as reduction in SAH level using DL-normetanephrine as substrate in presence of SAM incubated for 45 mins by LC-MS/MS analysis relative to control; settings: recombinant human PNMT expressed in Escherichia coli, probe DL-normetanephrine
T2 sequence (P11086 whole entry): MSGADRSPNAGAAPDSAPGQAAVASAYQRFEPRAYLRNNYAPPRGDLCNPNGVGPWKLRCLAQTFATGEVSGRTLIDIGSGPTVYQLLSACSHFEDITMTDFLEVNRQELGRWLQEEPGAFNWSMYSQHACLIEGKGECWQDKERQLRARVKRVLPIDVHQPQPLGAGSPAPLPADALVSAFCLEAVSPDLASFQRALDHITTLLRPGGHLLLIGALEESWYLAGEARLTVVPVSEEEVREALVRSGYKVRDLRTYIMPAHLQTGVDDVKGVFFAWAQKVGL

[6] = target: T3, COMT (catechol O-methyltransferase) (Homo sapiens, UniProt P21964); assay: Inhibition of human COMT expressed in Escherichia coli at 10 uM assessed as reduction in SAH level using pyrocatechol as substrate in presence of SAM incubated for 15 mins by LC-MS/MS analysis relative to control; settings: recombinant human COMT expressed in Escherichia coli, probe pyrocatechol
T3 sequence (P21964 whole entry): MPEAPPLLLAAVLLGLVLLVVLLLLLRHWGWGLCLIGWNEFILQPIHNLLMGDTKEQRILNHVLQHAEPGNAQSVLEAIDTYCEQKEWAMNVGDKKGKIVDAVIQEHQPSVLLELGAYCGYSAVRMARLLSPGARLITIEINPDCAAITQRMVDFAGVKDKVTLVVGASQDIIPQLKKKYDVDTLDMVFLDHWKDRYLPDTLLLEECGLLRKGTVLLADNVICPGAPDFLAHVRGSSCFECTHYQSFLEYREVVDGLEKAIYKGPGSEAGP

[7] = target: HNMT (histamine N-methyltransferase) (Homo sapiens, UniProt P50135); assay: Inhibition of human HNMT expressed in Escherichia coli at 10 uM assessed as reduction in SAH level using histamine as substrate in presence of SAM incubated for 15 mins by LC-MS/MS analysis relative to control; settings: recombinant human HNMT expressed in Escherichia coli, probe histamine
[8] = target: INMT (indolethylamine N-methyltransferase) (Homo sapiens, UniProt O95050); assay: Inhibition of wild type human INMT expressed in Escherichia coli at 10 uM using tryptamine as substrate in presence of SAM incubated for 30 mins by MTase-Glo assay relative to control; settings: probe tryptamine
[9] = target: T4, Nicotinamide N-methyltransferase (Homo sapiens, UniProt P40261); assay: Inhibition of N-terminal His6-tagged wild type human NNMT expressed in Escherichia coli NiCo21(DE3) assessed as reduction in 1-methylquinolinium level using quinoline as substrate in presence of SAM and measured every 27 seconds for 5.5 mins by fluorescence-based assay
T4 sequence (P40261 whole entry): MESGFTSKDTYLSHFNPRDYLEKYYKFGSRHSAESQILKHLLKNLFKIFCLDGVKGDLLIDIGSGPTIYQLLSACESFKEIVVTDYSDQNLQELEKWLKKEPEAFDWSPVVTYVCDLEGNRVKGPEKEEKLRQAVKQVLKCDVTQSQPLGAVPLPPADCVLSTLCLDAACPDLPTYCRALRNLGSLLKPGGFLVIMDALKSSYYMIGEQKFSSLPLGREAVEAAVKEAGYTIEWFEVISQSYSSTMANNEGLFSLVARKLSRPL

[10] = target: Protein arginine N-methyltransferase 1 (Homo sapiens, UniProt Q99873); assay: Inhibition of human PRMT1 expressed in Escherichia coli assessed as reduction in methylated histone H4 full length level using histone H4 full length as substrate in presence of [3H] SAM incubated for 20 mins by scintillation counting
Protein arginine N-methyltransferase 1, sequence (Q99873 whole entry): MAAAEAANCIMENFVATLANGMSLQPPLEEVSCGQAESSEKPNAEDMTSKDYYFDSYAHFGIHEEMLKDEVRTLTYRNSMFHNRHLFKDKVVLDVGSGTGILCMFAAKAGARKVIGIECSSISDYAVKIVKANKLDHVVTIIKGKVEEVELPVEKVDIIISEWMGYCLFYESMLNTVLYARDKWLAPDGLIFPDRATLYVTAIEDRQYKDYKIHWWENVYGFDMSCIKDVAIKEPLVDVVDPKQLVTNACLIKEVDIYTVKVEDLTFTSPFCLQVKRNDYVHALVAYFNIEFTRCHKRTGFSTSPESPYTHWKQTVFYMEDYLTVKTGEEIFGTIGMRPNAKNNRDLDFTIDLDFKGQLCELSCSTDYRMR

HNMT (histamine N-methyltransferase), sequence (P50135 whole entry): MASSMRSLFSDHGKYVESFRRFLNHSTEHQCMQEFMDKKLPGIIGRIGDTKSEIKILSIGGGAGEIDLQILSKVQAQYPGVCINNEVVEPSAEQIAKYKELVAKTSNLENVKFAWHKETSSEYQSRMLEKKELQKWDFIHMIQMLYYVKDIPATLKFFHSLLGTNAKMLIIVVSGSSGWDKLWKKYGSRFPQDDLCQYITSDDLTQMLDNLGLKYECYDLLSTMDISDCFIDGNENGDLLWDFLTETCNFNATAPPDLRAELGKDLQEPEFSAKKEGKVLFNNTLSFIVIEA
DNA (cytosine-5)-methyltransferase 3A, sequence (Q9Y6K1 whole entry, looked up): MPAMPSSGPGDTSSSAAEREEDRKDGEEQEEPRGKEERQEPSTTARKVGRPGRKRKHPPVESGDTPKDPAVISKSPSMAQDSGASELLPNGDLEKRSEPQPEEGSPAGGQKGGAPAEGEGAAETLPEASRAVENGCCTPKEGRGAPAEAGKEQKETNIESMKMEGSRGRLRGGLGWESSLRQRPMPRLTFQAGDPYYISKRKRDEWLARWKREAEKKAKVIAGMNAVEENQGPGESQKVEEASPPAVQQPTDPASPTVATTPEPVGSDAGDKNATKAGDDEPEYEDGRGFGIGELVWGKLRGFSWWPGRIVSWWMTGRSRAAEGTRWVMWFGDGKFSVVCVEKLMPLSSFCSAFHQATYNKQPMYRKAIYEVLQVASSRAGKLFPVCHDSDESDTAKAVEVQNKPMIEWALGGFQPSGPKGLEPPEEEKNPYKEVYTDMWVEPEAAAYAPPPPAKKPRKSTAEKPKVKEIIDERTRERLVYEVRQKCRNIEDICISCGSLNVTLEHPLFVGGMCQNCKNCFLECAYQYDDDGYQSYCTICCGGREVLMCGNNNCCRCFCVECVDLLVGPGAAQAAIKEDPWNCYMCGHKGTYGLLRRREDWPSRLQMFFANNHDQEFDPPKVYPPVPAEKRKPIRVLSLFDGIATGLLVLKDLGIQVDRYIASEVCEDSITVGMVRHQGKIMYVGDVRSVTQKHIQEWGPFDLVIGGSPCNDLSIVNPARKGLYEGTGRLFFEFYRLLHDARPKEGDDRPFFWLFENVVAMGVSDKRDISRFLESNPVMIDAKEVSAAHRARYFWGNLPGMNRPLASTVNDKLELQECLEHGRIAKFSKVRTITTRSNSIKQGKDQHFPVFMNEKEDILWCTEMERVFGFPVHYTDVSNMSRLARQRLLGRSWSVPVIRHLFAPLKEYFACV
INMT (indolethylamine N-methyltransferase), sequence (O95050 whole entry): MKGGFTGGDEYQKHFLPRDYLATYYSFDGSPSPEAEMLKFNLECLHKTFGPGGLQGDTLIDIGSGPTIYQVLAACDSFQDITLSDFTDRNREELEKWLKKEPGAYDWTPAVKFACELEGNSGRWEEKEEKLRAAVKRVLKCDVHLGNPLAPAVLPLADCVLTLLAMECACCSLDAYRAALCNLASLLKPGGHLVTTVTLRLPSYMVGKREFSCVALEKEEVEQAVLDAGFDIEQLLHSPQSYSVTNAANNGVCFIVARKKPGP

NC(=O)c1cccc(C#C[C@@H](CC[C@H](N)C(=O)O)C[C@H]2O[C@@H](n3cnc4c(N)ncnc43)[C@H](O)[C@@H]2O)c1
permeability [1]: Impermeable | inhibition at 0.5 h, 1 µM [2]: 4% | IC50 [3]: 7600 nM | inhibition at 0.5 h, 10 µM [4]: 26% | inhibition at 0.75 h, 1 µM [5]: 0% | inhibition at 0.25 h, 10 µM [6]: 43% | inhibition at 0.25 h, 10 µM [7]: 2% | inhibition at 0.5 h, 10 µM [8]: 53% | Ki ([9]; read-out: Ki): 0.5 nM | Ki ([9]; read-out: pKi (converted)): 0.501 nM | IC50 [10]: > 10000 nM

Source: ChEMBL document CHEMBL4414609, “High-Affinity Alkynyl Bisubstrate Inhibitors of Nicotinamide N-Methyltransferase (NNMT)” (J Med Chem, 2019)
